# Measured values from patent US6914045B2, “Glycopeptide antibiotics” (Wyeth Holdings Corporation, priority 2001, dated 2005).
# Tests used:
# Test in all cases: in vitro antibacterial evaluation, MIC by broth dilution
# Format in all cases: cell-based
# Staphylococcus sp. = conditions: broth dilution, 18 hours at 35° C.; for MIC Staphylococcus aureus (ATCC 29213): strain ATCC 29213; for MIC Staphylococcus aureus (GC 1131): strain GC 1131; for MIC Staphylococcus aureus (GC 3051): strain GC 3051; for MIC Staphylococcus aureus (GC 3053): strain GC 3053; for MIC Staphylococcus aureus (GC 4541): strain GC 4541; for MIC Staphylococcus aureus (GC 4542): strain GC 4542; for MIC Staphylococcus aureus-SMITH (GC 4543): strain GC 4543; for MIC Staphylococcus aureus (GC 4544): strain GC 4544; for MIC Staphylococcus aureus (GC 4545): strain GC 4545; for MIC Staphylococcus haemolyticus (GC 4546): strain GC 4546; for MIC Coagulase Negative Staphylococcus (GC 4547): strain GC 4547; for MIC Coagulase Negative Staphylococcus (GC 4548): strain GC 4548; for MIC Coagulase Negative Staphylococcus (GC 4549): strain GC 4549; for MIC Coagulase Negative Staphylococcus (GC 4551): strain GC 4551
# How it was run: (§1)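 Inoculum 5×10^5 CFU/mL; concentrations 64 to 0.06 μg/mL; MIC defined as lowest inhibitory level. Conducted by broth dilution under NCCLS guidelines.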
# Streptococcus sp. = conditions: broth dilution, 18 hours at 35° C.
# How it was run: as §1
# Enterococcus sp. = conditions: broth dilution, 18 hours at 35° C.
# How it was run: as §1
# Escherichia coli = conditions: 18 hours at 35° C.
# How it was run: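 Broth dilution in Muller-Hinton II medium per NCCLS standard M7-A2, with an inoculum of 5×10^5 CFU/mL and antibiotic tested over 64-0.06 μg/mL. MIC was taken as the lowest concentration inhibiting visible growth.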
smiles,measurement,setting,value
CC(c1ccccc1)C1NC(=O)CNC(=O)C(CO)NC(=O)C(C(O)C2CNC(=N)N2C2OC(CO)C(O)C(O)C2O)NC(=O)C(C(O)C2CNC(=N)N2)NC(=O)C(Cc2ccc3oc(SCc4ccc5ccccc5c4)nc3c2)NC1=O (stereo not drawn) [Example 46],MIC Staphylococcus aureus (ATCC 29213),Staphylococcus sp.,8 µg/mL
same,MIC Staphylococcus aureus (GC 1131),Staphylococcus sp.,8 µg/mL
same,MIC Staphylococcus aureus (GC 3051),Staphylococcus sp.,8 µg/mL
same,MIC Staphylococcus aureus (GC 3053),Staphylococcus sp.,8 µg/mL
same,MIC Staphylococcus aureus (GC 4541),Staphylococcus sp.,8 µg/mL
same,MIC Staphylococcus aureus (GC 4542),Staphylococcus sp.,8 µg/mL
same,MIC Staphylococcus aureus-SMITH (GC 4543),Staphylococcus sp.,4 µg/mL
same,MIC Staphylococcus aureus (GC 4544),Staphylococcus sp.,8 µg/mL
same,MIC Staphylococcus aureus (GC 4545),Staphylococcus sp.,8 µg/mL
same,MIC Staphylococcus haemolyticus (GC 4546),Staphylococcus sp.,8 µg/mL
same,MIC Coagulase Negative Staphylococcus (GC 4547),Staphylococcus sp.,4 µg/mL
same,MIC Coagulase Negative Staphylococcus (GC 4548),Staphylococcus sp.,8 µg/mL
same,MIC Coagulase Negative Staphylococcus (GC 4549),Staphylococcus sp.,2 µg/mL
same,MIC Coagulase Negative Staphylococcus (GC 4551),Staphylococcus sp.,4 µg/mL
same,MIC Streptococcus pneumoniae (ATCC 6301),Streptococcus sp.; strain ATCC 6301,8 µg/mL
same,MIC Streptococcus pneumoniae (GC 1894),Streptococcus sp.; strain GC 1894,8 µg/mL
same,MIC Streptococcus pyogenes (GC 4563),Streptococcus sp.; strain GC 4563,1 µg/mL
same,MIC Streptococcus agalactiae (GC 4564),Streptococcus sp.; strain GC 4564,8 µg/mL
same,MIC Streptococcus pneumoniae (GC 4565),Streptococcus sp.; strain GC 4565,8 µg/mL
same,MIC Enterococcus faecalis (ATCC 29212),Enterococcus sp.; strain ATCC 29212,8 µg/mL
same,MIC Enterococcus faecalis (GC 2242),Enterococcus sp.; strain GC 2242,8 µg/mL
same,MIC Enterococcus faecium (GC 2243),Enterococcus sp.; strain GC 2243,4 µg/mL
same,MIC Enterococcus faecalis (GC 2691),Enterococcus sp.; strain GC 2691,16 µg/mL
same,MIC Enterococcus faecalis (GC 3059),Enterococcus sp.; strain GC 3059,32 µg/mL
same,MIC Enterococcus faecalis (GC 4552),Enterococcus sp.; strain GC 4552,8 µg/mL
same,MIC Enterococcus faecalis (GC 4553),Enterococcus sp.; strain GC 4553,4 µg/mL
same,MIC Enterococcus faecalis (GC 4554),Enterococcus sp.; strain GC 4554,16 µg/mL
same,MIC Enterococcus faecium (GC 4556),Enterococcus sp.; strain GC 4556,16 µg/mL
same,MIC Enterococcus faecium (GC 4557),Enterococcus sp.; strain GC 4557,8 µg/mL
same,MIC Enterococcus avium (GC 4558),Enterococcus sp.; strain GC 4558,4 µg/mL
same,MIC Enterococcus faecalis (GC 6189),Enterococcus sp.; strain GC 6189,16 µg/mL
same,MIC Escherichia coli (ATCC 25922),"Escherichia coli; strain ATCC 25922, broth dilution",64 µg/mL
same,MIC Escherichia coli (GC 4559),"Escherichia coli; strain GC 4559, broth dilution",64 µg/mL
same,MIC Escherichia coli (GC 4560),"Escherichia coli; strain GC 4560, broth dilution",16 µg/mL
Cc1ccc(Oc2cccc(C3OCC4OC(OC5C(CO)OC(Oc6ccc(CC7NC(=O)C(C(C)c8ccccc8)NC(=O)CNC(=O)C(CO)NC(=O)C(C(O)C8CNC(=N)N8C8OC(CO)C(O)C(O)C8O)NC(=O)C(C(O)C8CNC(=N)N8)NC7=O)cc6I)C(O)C5O)C(O)C(O)C4O3)c2)cc1 (stereo not drawn) [Example 197],MIC Staphylococcus aureus (GC 1131),Staphylococcus sp.; inoculum 5×10^5 CFU/mL,16 µg/mL
same,MIC Staphylococcus aureus (ATCC 29213),Staphylococcus sp.,32 µg/mL
same,MIC Staphylococcus aureus (GC 1131),Staphylococcus sp.,16 µg/mL
same,MIC Staphylococcus aureus (GC 3051),Staphylococcus sp.,64 µg/mL
same,MIC Staphylococcus aureus (GC 3053),Staphylococcus sp.,64 µg/mL
same,MIC Staphylococcus aureus (GC 4541),Staphylococcus sp.,16 µg/mL
same,MIC Staphylococcus aureus (GC 4542),Staphylococcus sp.,64 µg/mL
same,MIC Staphylococcus aureus-SMITH (GC 4543),Staphylococcus sp.,16 µg/mL
same,MIC Staphylococcus aureus (GC 4544),Staphylococcus sp.,32 µg/mL
same,MIC Staphylococcus aureus (GC 4545),Staphylococcus sp.,32 µg/mL
same,MIC Staphylococcus haemolyticus (GC 4546),Staphylococcus sp.,32 µg/mL
same,MIC Coagulase Negative Staphylococcus (GC 4547),Staphylococcus sp.,32 µg/mL
same,MIC Coagulase Negative Staphylococcus (GC 4548),Staphylococcus sp.,8 µg/mL
same,MIC Coagulase Negative Staphylococcus (GC 4549),Staphylococcus sp.,8 µg/mL
same,MIC Coagulase Negative Staphylococcus (GC 4551),Staphylococcus sp.,16 µg/mL
same,MIC Coagulase Negative Staphylococcus (GC 6257),Staphylococcus sp.; strain GC 6257,4 µg/mL
same,MIC Streptococcus agalactiae (GC 4564),Streptococcus sp.,16 µg/mL
same,MIC Streptococcus pneumoniae (ATCC 6301),Streptococcus sp.,4 µg/mL
same,MIC Streptococcus pneumoniae (GC 1894),Streptococcus sp.,8 µg/mL
same,MIC Streptococcus pneumoniae (GC 4565),Streptococcus sp.,8 µg/mL
same,MIC Streptococcus pyogenes (GC 4563),Streptococcus sp.,16 µg/mL
same,MIC Streptococcus pneumoniae (ATCC 6301),"Streptococcus sp.; inoculum 5×10^5 CFU/mL, strain ATCC 6301",4 µg/mL
same,MIC Streptococcus pneumoniae (GC 1894),"Streptococcus sp.; inoculum 5×10^5 CFU/mL, strain GC 1894",8 µg/mL
same,MIC Streptococcus pyogenes (GC 4563),"Streptococcus sp.; inoculum 5×10^5 CFU/mL, strain GC 4563",16 µg/mL
same,MIC Streptococcus agalactiae (GC 4564),"Streptococcus sp.; inoculum 5×10^5 CFU/mL, strain GC 4564",16 µg/mL
same,MIC Streptococcus pneumoniae (GC 4565),"Streptococcus sp.; inoculum 5×10^5 CFU/mL, strain GC 4565",8 µg/mL
same,MIC Enterococcus avium (GC 4558),Enterococcus sp.,16 µg/mL
same,MIC Enterococcus faecalis (ATCC 29212),Enterococcus sp.,>64 µg/mL
same,MIC Enterococcus faecalis (GC 2242),Enterococcus sp.,>64 µg/mL
same,MIC Enterococcus faecalis (GC 2691),Enterococcus sp.,>64 µg/mL
same,MIC Enterococcus faecalis (GC 3059),Enterococcus sp.,>64 µg/mL
same,MIC Enterococcus faecalis (GC 4552),Enterococcus sp.,>64 µg/mL
same,MIC Enterococcus faecalis (GC 4553),Enterococcus sp.,64 µg/mL
same,MIC Enterococcus faecalis (GC 4554),Enterococcus sp.,>64 µg/mL
same,MIC Enterococcus faecalis (GC 6189),Enterococcus sp.,64 µg/mL
same,MIC Enterococcus faecium (GC 2243),Enterococcus sp.,64 µg/mL
same,MIC Enterococcus faecium (GC 4556),Enterococcus sp.,>64 µg/mL
same,MIC Enterococcus faecium (GC 4557),Enterococcus sp.,8 µg/mL
same,MIC Enterococcus faecalis (ATCC 29212),"Enterococcus sp.; inoculum 5×10^5 CFU/mL, strain ATCC 29212",>64 µg/mL
same,MIC Enterococcus faecalis (GC 2242),"Enterococcus sp.; inoculum 5×10^5 CFU/mL, strain GC 2242",>64 µg/mL
same,MIC Enterococcus faecium (GC 2243),"Enterococcus sp.; inoculum 5×10^5 CFU/mL, strain GC 2243",64 µg/mL
same,MIC Enterococcus faecalis (GC 2691),"Enterococcus sp.; inoculum 5×10^5 CFU/mL, strain GC 2691",>64 µg/mL
same,MIC Enterococcus faecalis (GC 3059),"Enterococcus sp.; inoculum 5×10^5 CFU/mL, strain GC 3059",>64 µg/mL
same,MIC Enterococcus faecalis (GC 4552),"Enterococcus sp.; inoculum 5×10^5 CFU/mL, strain GC 4552",>64 µg/mL
same,MIC Enterococcus faecalis (GC 4553),"Enterococcus sp.; inoculum 5×10^5 CFU/mL, strain GC 4553",64 µg/mL
same,MIC Enterococcus faecalis (GC 4554),"Enterococcus sp.; inoculum 5×10^5 CFU/mL, strain GC 4554",>64 µg/mL
same,MIC Enterococcus faecium (GC 4556),"Enterococcus sp.; inoculum 5×10^5 CFU/mL, strain GC 4556",>64 µg/mL
same,MIC Enterococcus faecium (GC 4557),"Enterococcus sp.; inoculum 5×10^5 CFU/mL, strain GC 4557",8 µg/mL
same,MIC Enterococcus avium (GC 4558),"Enterococcus sp.; inoculum 5×10^5 CFU/mL, strain GC 4558",16 µg/mL
same,MIC Enterococcus faecalis (GC 6189),"Enterococcus sp.; inoculum 5×10^5 CFU/mL, strain GC 6189",64 µg/mL
same,MIC Escherichia coli (ATCC 25922),Escherichia coli,32 µg/mL
same,MIC Escherichia coli (GC 4559),Escherichia coli,64 µg/mL
same,MIC Escherichia coli (GC 4560),Escherichia coli,16 µg/mL
